Measured values published in paper PMC9014412 (Journal of medicinal chemistry, 2022).

Tests used:
HDAC2 = HDAC2 (Homo sapiens, UniProt Q92769); assay: HDAC2 degradation by quantitative western blotting in HCT116 cells; conditions: for HDAC2 degradation in initial screen (in words): HCT116 cells, 24 h, 0.1, 1 and 10 μM, compared with 1 at 10 μM
Experimental: (§3) Initially, each PROTAC was tested at 0.1, 1, and 10 μM in HCT116 cells for 24 h; then, cell extracts were prepared and evaluated for HDAC1/2 and 3 degradation by quantitative western blotting.
(§4) This cell line was incubated at 37 °C with 5% CO2.
(§5) HCT116 cells were seeded into 6-well plates (4 × 10^5 cells/well for 24 h, 2 × 10^5 cells/well for 48 h) for 24 h and then treated with DMSO or compounds at the indicated concentrations in fresh medium (5 mL total). After desired treatment time, the cells were harvested and then lysed in lysis buffer (50 mM Tris-HCl, 150 mM NaCl, 0.5% NP-40, 0.5% Triton X-100) supplemented with a protease inhibitor (Sigma, P8340). The suspension was incubated on ice for 30 min and centrifuged (18,000 rcf, 15 min, 4 °C); then, the supernatant was collected, and protein concentrations were quantified via Bradford Assay using Protein Assay Dye Reagent Concentrate (BIO-RAD). […] PageRuler Plus Prestained Ladder was used for size standards. After gel electrophoresis at 140 V for 90 min, the separated proteins were transferred onto a nitrocellulose membrane at 30 V for 60 min. The membranes were probed with primary antibodies (see the Supporting Information) for 60−90 min. Blots were developed with complimentary IRDye-conjugated secondary antibodies, and the bands were visualized using an Odyssey infrared imaging system. Image processing and band intensity quantification were performed using Image Studio Lite.

H3K56ac = assay: Histone H3 Lys 56 acetylation (H3K56ac) western blotting; format: cell-based, human; conditions: HCT116 cells, 24 h, screen at 0.1, 1, 10 μM; relative to DMSO, CI-994 and 1 at 10 μM
Source text: (§1) Supporting Information: Biology
(§2) Representative blots of two independent biological replicates.

Solubility observations = format: physicochemical; conditions: aqueous
HDAC1 = HDAC1 (Homo sapiens, UniProt Q13547); assay: HDAC1 degradation by quantitative western blotting in HCT116 cells; conditions: HCT116 cells, 24 h, 0.1, 1 and 10 μM; compared with 1 at 10 μM
Experimental: as §3, §4, §5

SIN3A = SIN3A protein levels by western blotting; format: cell-based, human; conditions: HCT116 cells
Experimental: as §1, §2
Figure S6. Representative Western blot of HDAC1/2/3 levels after 24 hours and 48 hours with 1
(JPS004), 7 (JPS014) and 9 (JPS016), and bar graph representation of HDAC1-3, LSD1 and Sin3a
protein levels after 24 hours and 48 hours as the average of three independent biological replicates.
(also on this page, place not known: HDAC1 24hHDAC2 24hHDAC3 24hHDAC1 48hHDAC2 48hHDAC3 %Protein Levels Remaining (Relative to DMSO) %Protein Levels Remaining (Relative to DMSO))

HCT116 cells [1] = assay: CellTiter-Glo 2.0 cell viability assay; format: cell-based, human; conditions: for EC50: Homo sapiens, HCT-116, 48 h
Experimental: CellTiter-Glo 2.0 Reagent (Promega UK Ltd, G9242) was equilibrated to room temperature and added to the wells in a ratio of 1 volume reagent:5 volumes medium. Background luminescence was determined using medium alone plus reagent. The plates were shaken on an orbital shaker for 2 min to induce cell lysis and then incubated in the dark at room temperature for 10 min to stabilize the luminescent signal. Luminescence was captured on a CLARIOstar plate reader (BMG Labtech Ltd, UK) at 22 °C to give relative luminescence units and analyzed using BMG Labtech software. EC50 values were calculated by nonlinear regression (Hill plot) and log (inhibitor) versus response—variable slopes (four parameters) using GraphPad Prism 9 software. Each compound dose response was repeated as four independent biological replicates (n = 4).

HCT116 cells [2] = assay: Apoptosis flow cytometry assay (sub-G1 population); format: cell-based, human; conditions: 10 μM, after 24 h
Experimental: HCT116 cells were seeded (5 × 10^5 cells/plate) into 6 cm tissue culture plates for 24 h and then treated with 10 μM compounds (with 0.1% DMSO vehicle) or 0.1% DMSO control in fresh medium (5 mL total). The cells were then exposed to the compounds (10 μM) for 24 or 48 h. To harvest the cells, the medium was transferred from each sample plate to 15 mL centrifuge tubes. Each well was washed with 1 mL of phosphate-buffered saline (PBS) and the PBS was transferred to the corresponding 15 mL centrifuge tube. The plates were trypsinized, 2 mL of medium was added, and the cells and medium were transferred to the corresponding 15 mL centrifuge tubes. The harvested cells were pelleted by centrifugation (200g, 5 min, 4 °C), washed with 1 mL PBS, and then pelleted again by centrifugation (200g, 5 min, 4 °C). The supernatant was discarded, and the pellets resuspended in 1 mL of 70% ethanol (ice-cold) to fix the cells. Samples were stored at 4 °C and analyzed within two weeks. PBS (1 mL) was added to each sample tube containing cells fixed in 70% ethanol. The cells were pelleted by centrifugation (200g, 5 min, 4 °C), and the PBS wash was repeated. The supernatant was discarded, and the pellet was resuspended in 50 μL of RNase A (1 μg/mL, Thermo Scientific, EN0531) and left at room temperature for 10 min to digest contaminating RNA. A total of 500 μL of PI stain (50 μg/mL, Invitrogen, P3566) was added to each tube, and the tubes were incubated in the dark, at room temperature, for 30 min. Results were acquired on a BD FACSCanto II flow cytometer and analyzed using BD FACSdiva software. Sub-G1 population was calculated as a percentage of total cell population. Two independent biological replicates were performed.

HDAC3 = HDAC3 (Homo sapiens, UniProt O15379); assay: HDAC3 degradation by quantitative western blotting in HCT116 cells; conditions: HCT116 cells, 24 h, 0.1, 1 and 10 μM; compared with 1 at 10 μM
HDAC3, sequence (O15379 whole entry): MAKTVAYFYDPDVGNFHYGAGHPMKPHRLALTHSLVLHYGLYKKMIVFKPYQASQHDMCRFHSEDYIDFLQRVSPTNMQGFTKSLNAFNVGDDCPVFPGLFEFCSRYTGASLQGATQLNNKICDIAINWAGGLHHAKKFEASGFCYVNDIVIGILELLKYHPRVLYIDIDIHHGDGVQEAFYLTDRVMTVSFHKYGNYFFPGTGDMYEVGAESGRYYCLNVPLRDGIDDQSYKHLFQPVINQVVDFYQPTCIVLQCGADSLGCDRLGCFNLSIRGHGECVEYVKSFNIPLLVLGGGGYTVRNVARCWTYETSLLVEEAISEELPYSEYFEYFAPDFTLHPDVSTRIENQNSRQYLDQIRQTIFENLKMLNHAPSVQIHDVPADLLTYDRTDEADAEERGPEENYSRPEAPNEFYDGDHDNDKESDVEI
HDAC3, sequence (Q9Y618 389-480 partner limits assumed): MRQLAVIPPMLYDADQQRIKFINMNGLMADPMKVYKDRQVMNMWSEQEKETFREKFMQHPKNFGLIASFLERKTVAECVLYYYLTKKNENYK
Experimental: as §3, §4, §5

HDAC1, sequence (Q13547 whole entry): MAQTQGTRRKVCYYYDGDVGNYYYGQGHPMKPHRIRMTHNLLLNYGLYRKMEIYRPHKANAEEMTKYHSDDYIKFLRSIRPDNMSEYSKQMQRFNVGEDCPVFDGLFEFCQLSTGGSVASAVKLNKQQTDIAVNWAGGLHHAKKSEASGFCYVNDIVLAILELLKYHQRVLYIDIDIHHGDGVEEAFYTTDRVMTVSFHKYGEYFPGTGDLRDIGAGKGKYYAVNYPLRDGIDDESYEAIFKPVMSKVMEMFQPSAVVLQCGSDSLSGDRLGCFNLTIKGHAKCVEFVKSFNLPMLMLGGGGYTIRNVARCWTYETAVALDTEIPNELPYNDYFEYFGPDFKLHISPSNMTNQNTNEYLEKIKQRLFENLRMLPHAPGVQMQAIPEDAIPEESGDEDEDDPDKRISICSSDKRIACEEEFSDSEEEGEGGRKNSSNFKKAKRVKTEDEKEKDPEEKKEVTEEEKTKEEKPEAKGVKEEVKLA
HDAC2, sequence (Q92769 whole entry): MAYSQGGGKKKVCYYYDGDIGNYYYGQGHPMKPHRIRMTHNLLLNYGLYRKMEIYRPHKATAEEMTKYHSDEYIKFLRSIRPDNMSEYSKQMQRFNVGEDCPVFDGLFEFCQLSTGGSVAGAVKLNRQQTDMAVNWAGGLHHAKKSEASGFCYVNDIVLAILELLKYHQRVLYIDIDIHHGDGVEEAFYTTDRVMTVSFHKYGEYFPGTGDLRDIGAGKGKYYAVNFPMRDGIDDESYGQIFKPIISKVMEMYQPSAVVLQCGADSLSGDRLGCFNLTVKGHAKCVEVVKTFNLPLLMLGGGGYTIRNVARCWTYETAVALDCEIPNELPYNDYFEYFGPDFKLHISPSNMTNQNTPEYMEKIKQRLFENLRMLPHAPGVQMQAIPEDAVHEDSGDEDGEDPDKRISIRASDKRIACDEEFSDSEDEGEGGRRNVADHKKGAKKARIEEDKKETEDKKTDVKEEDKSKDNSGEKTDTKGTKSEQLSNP

Row | SMILES | HDAC2 degradation in initial screen (in words) (HDAC2) | H3K56ac levels (in words) (H3K56ac) | HDAC1 degradation in initial screen (in words) (HDAC1) | other results
1 | Cc1ncsc1-c1ccc(CNC(=O)[C@@H]2C[C@@H](O)CN2C(=O)[C@@H](NC(=O)CCCCCCCCCCCCC(=O)Nc2ccc(C(=O)Nc3ccccc3N)cc2)C(C)(C)C)cc1 [Compound 5, N1-(4-((2-Aminophenyl)carbamoyl)phenyl)-N14-((S)-1-((2S,4R)-4-hydroxy-2-((4-(4-methylthiazol-5-yl)benzyl)carbamoyl)-pyrrolidin-1-yl)-3,3-dimethyl-1-oxobutan-2-yl)tetradecanediamide] | comparable HDAC1 and HDAC2 degradation to the shorter linkers | only a modest increase in H3K56ac compared to the shorter linkers | comparable HDAC1 and HDAC2 degradation to the shorter linkers | Solubility (in words) (Solubility observations): solubility issues
2 | CC(=O)Nc1ccc(C(=O)Nc2ccccc2N)cc1 [CI-994, reference compound] |  |  |  | SIN3A levels (in words) (SIN3A; especially after 48 h): significantly reduced
3 | Cc1ncsc1-c1ccc(CNC(=O)[C@@H]2C[C@@H](O)CN2C(=O)[C@@H](NC(=O)CCCCCCCCCCC(=O)Nc2ccc(C(=O)Nc3ccccc3N)cc2)C(C)(C)C)cc1 [Compound 1, N1-(4-((2-Aminophenyl)carbamoyl)phenyl)-N12-((S)-1-((2S,4R)-4-hydroxy-2-((4-(4-methylthiazol-5-yl)benzyl)carbamoyl)pyrrolidin-1-yl)-3,3-dimethyl-1-oxobutan-2-yl)dodecanediamide] |  |  |  | EC50 (HCT116 cells [1]; 48 h): 4.3 ± 0.5 µM
4 | Cc1ncsc1-c1ccc(CNC(=O)[C@@H]2C[C@@H](O)CN2C(=O)[C@@H](NC(=O)CCCCCCCCOCC(=O)Nc2ccc(C(=O)Nc3ccccc3N)cc2)C(C)(C)C)cc1 [Compound 7, (2S,4R)-1-((S)-2-(9-(2-((4-((2-Aminophenyl)carbamoyl)phenyl)-amino)-2-oxoethoxy)nonanamido)-3,3-dimethylbutanoyl)-4-hydroxy-N-(4-(4-methylthiazol-5-yl)benzyl)pyrrolidine-2-carboxamide] |  | increased H3K56ac to comparable or greater levels than CI-994 and 1 |  | Percentage of cells in sub-G1 phase (in words) (HCT116 cells [2]): highest percentage of cells in the sub-G1 phase; EC50 (HCT116 cells [1]): 7.3 ± 0.5 µM; SIN3A levels (abundance) (SIN3A; 10 μM, after 24 h): 50 % abundance
5 | Cc1ncsc1-c1ccc(CNC(=O)[C@@H]2CC(O)CN2C(=O)[C@@H](NC(=O)COCCOCCOCCOCC(=O)Nc2ccc(C(=O)Nc3ccccc3N)cc2)C(C)(C)C)cc1 (stereo in doubt) [Compound 12, N1-(4-((2-Aminophenyl)carbamoyl)phenyl)-N14-((S)-1-((2S,4S)-4-hydroxy-2-((4-(4-methylthiazol-5-yl)benzyl)carbamoyl)-pyrrolidin-1-yl)-3,3-dimethyl-1-oxobutan-2-yl)-3,6,9,12-tetraoxatetradecanediamide] | almost complete loss of HDAC1/2 degradation | did not increase H3K56ac levels compared to the dimethyl sulfoxide (DMSO) control | almost complete loss of HDAC1/2 degradation | HDAC3 degradation in initial screen (in words) (HDAC3): generally compromised
6 | Cc1ncsc1-c1ccc(CNC(=O)[C@@H]2C[C@@H](O)CN2C(=O)[C@@H](NC(=O)COCCOCC(=O)Nc2ccc(C(=O)Nc3ccccc3N)cc2)C(C)(C)C)cc1 [Compound 10, (2S,4R)-1-((S)-2-(2-(2-(2-((4-((2-Aminophenyl)carbamoyl)-phenyl)amino)-2-oxoethoxy)ethoxy)acetamido)-3,3-dimethylbutanoyl)-4-hydroxy-N-(4-(4-methylthiazol-5-yl)benzyl)pyrrolidine-2-carboxamide] | almost complete loss of HDAC1/2 degradation | did not increase H3K56ac levels compared to the dimethyl sulfoxide (DMSO) control | almost complete loss of HDAC1/2 degradation | HDAC3 degradation in initial screen (in words) (HDAC3): generally compromised
7 | Cc1ncsc1-c1ccc(CNC(=O)[C@@H]2C[C@@H](O)CN2C(=O)[C@@H](NC(=O)C2(F)CC2)C(C)(C)C)c(OCCCCCCCCCCCC(=O)Nc2ccc(C(=O)Nc3ccccc3N)cc2)c1 [Compound 22, (2S,4R)-N-(2-((12-((4-((2-Aminophenyl)carbamoyl)phenyl)-amino)-12-oxododecyl)oxy)-4-(4-methylthiazol-5-yl)benzyl)-1-((S)-2-(1-fluorocyclopropane-1-carboxamido)-3,3-dimethylbutanoyl)-4-hydroxypyrrolidine-2-carboxamide] | reduction in HDAC1 and HDAC2 degradation compared to 1 | did not alter H3K56ac levels |  | Dmax (HDAC2; HCT-116, read-out: Dmax HDAC2): 18%; Effect on cell viability (in words) (HCT116 cells [1]; CellTiter-Glo and flow cytometry): little effects on cell viability
